# US20250255958A1, “VIRUS-FREE CRISPR CAR NATURAL KILLER CELLS” (Wisconsin Alumni Research Foundation, priority 2024, published 2025)
# Several values for one entry are separate records, joined by “and”; a condition that tells them apart may be missing. Equal entries are not always repeated.
# Key:
# [1] = tested on: KLRC1 gene; test: Indel formation by NGS after Cas9 RNP nucleofection of NK-92 cells; format: cell-based, human; conditions: SpCas9 RNP, NGS after two weeks of culture, exon 3
# Protocol: On-target editing analysis via Next Generation Sequencing: Genomic DNA was extracted and indel formation was analyzed via next generation sequencing (Illumina) as previously described in the art. Briefly, edited amplicons were amplified and purified using genomic PCR and SPRI cleanup, respectively. A second PCR was performed with indexing primers to attach unique dual identifiers (Illumina®) to the amplicons. After a second SPRI cleanup, samples were combined and run on the Illumina® MiniSeq™ per the manufacturer's instructions and analyzed using the CRISPR RGEN software.
# The editing strategy to improve NK potency against solid tumors involves knocking out the NKG2A receptor that can inhibit cytotoxicity within solid tumors (FIG. 1A), while simultaneously conferring specificity of cytotoxicity to a target antigen on the cancer. To knock out the NKG2A receptor, three single-guide RNAs (sgRNAs) were designed against several common coding exons in the KLRC1 gene (FIG. 1B). Ribonucleoproteins (RNPs) were generated upon the complexation of these sgRNAs with SpCas9 to generate double-stranded DNA breaks at these targets within KLRC1. NK-92 cells, a human cell line derived from non-hodgkin lymphoma, were nucleofected with RNPs containing one of these sgRNAs, and assessed for insertions or deletions (indels) around the targeted site after two weeks of cell culture. […]
# [2] = tested on: human genome; test: Genome-wide off-target analysis by CHANGE-seq; format: biochemical
# Protocol: Off-target analysis via genome wide CHANGE-seq: The Gentra® Puregene® kit (Qiagen, Germantown, MD) was used to extract genomic DNA from unedited primary NK cells per the manufacturer's instructions. Genomic analysis was performed by CHANGE-Seq as described previously in the art. In short, genomic DNA underwent tagmentation with a custom Tn5-transposome, and was gap repaired with HiFi HotStart Uracil+ Ready Mix (Kapa Biosystems, Wilmington, MA). USER enzyme (NEB, Ipswich, MA) and T4 polynucleotide was then used to treat the gap-repaired DNA. DNA circularization was performed using T4 DNA ligase (NEB, Ipswich, MA), followed by treatment with a mixture of exonucleases to remove residual linear DNA. In vitro cleavage reactions were performed on the circularized DNA using SpCas9 protein (NEB, Ipswich, MA) and KLRC1 sgRNA. Cleaved products were incubated with proteinase K (NEB, Ipswich, MA), A-tailed, ligated with a hairpin adapter (NEB, Ipswich, MA), and treated with USER enzyme (NEB, Ipswich, MA). Products were amplified by PCR with the Kapa HiFi polymerase (Kapa Biosystems, Wilmington, MA), and libraries were quantified by qPCR (Kapa Biosystems, Wilmington, MA). Libraries were sequenced with 150 bp paired-end reads on the Illumina NextSeq2000 instrument. CHANGE-seq data analyses were performed as described previously.
# [3] = tested on: KLRC1; conditions: primary T cells, Bexte et al.; cited from earlier work
# [4] = tested on: NKG2A; conditions: Huang et al.; cited from earlier work
# [5] = biological target: T1, DNA-dependent protein kinase (DNA-PK) (Homo sapiens, UniProt P78527); format: cell-based
# T1 construct: NK cells were nucleofected on day 4 with the RNP complex and dsDNA, and incubated with M3814 at various concentrations; endogenous in cells; host or cells: primary peripheral-blood NK cells
# Protocol: Nucleofection: NK-cells were nucleofected on day 4, unless otherwise described for optimization experiments. Post-nucleofection recovery medium (Complete NK MACS® medium (Miltenyi) with 100 IU/mL IL-2 (Peprotech) and 2 ng/mL IL-15 (Peprotech)+/−0.6 uM M3814 (Selleck Chem)) was prepared, with M3814 added at 1.2× the working concentration to account for future dilution. For M3814 related optimization experiments, multiple aliquots of post-recovery medium were prepared with a corresponding concentration of M3814. 150 μL of M3814 recovery medium was plated into individual wells of a 96-well round bottom plate for each replicate and set aside in the incubator. PB-NK cells were harvested and counted using the Countess® II FL Automated Cell Counter (Thermo Fisher Scientific) with 0.4% Trypan Blue viability stain (Thermo Fisher Scientific). 5e5 cells were aliquoted into individual 1.5 mL Eppendorf Tubes® for each nucleofection replicate. While the RNP complexes incubated, the cells were pelleted at 100 g for 10 minutes, and 3 μg (1.5 μL) of dsDNA templates were aliquoted into PCR tubes for each replicate. Following incubation, the RNP complexes were added to the dsDNA templates and were allowed to incubate for 3-5 minutes at room temperature. Cell pellets were resuspended in P3 buffer with 22% supplement (Lonza), and combined with the RNP+dsDNA mixture, for a total volume of […]. Samples were added to the 24 μL reaction cuvettes (Lonza) and were nucleofected using the EH-100 program (Lonza Amaxa™ 4D-Nucleofector®), unless specified otherwise for optimization experiments. Immediately after nucleofection, 100 μL of pre-warmed recovery medium (no M3814) was added to each of the cuvette wells, and samples were rested at 37° C. for 15 minutes. Finally, samples were transferred from the cuvette to the 96-well plate containing pre-warmed recovery medium with M3814. After 24 hours, nucleofected NK cells were combined with irradiated K562-mb15-41BBL (100 Gy) at a 1:2 ratio in complete NK MACS medium with 100 IU/mL IL-2 and 2 ng/mL IL-15.
# NK cells were nucleofected on day 4 with the RNP complex and dsDNA, and incubated with M3814 at various concentrations. Nucleofected cells were expanded for one week and assayed by flow cytometry for NKG2A knock-out and transgene expression.
Compound,indel formation [1],sites having off-target activity near a transcription start site (TSS) ([2]; CHANGE-seq),sites having off-target nuclease activity within exons ([2]; CHANGE-seq),CHANGE-seq specificity ratio ([2]; on-target reads divided by sum of total reads),indel frequency [3],NKG2A knock-out [4],indel frequencies [4],cell expansion after nucleofection [5],improvement of HDR outcomes [5],percent of NKG2A− cells [5],percentage of transgene expression [5]
"GGTCTGAGTAGATTACTCCT(TGG) (guide GGUCUGAGUAGAUUACUCCU; listed as RNA, chemistry not given here) [gRNA1]",98%,8,10,0.038,58-80%,less than 25%,> 80%,–,–,–,–
COc1ccc([C@@H](O)c2cc(-c3ncnc4cc(N5CCOCC5)ccc34)c(F)cc2Cl)nn1 [M3814],–,–,–,–,–,–,–,did not affect cell expansion,two-fold,around 75%,11.9% and 12.8%
